Data: PMC7354229 (ACS infectious diseases, 2020)
Read-outs that look alike come from different tables or passages of the source.

Assays:
Assay type in all cases: cell-based, Staphylococcus aureus
S. aureus = test: Growth inhibition in 100% TSB
[1] = tested on: S. aureus JE2 transposon mutants; details: peptide at 1.56 μM, propidium iodide
[2] = tested on: S. aureus JE2 transposon mutant SAUSA300_1255 (mprF); test: MIC ratio WT/mutant
[3] = tested on: S. aureus JE2 transposon mutant SAUSA300_1037 (pheS); test: MIC ratio WT/mutant
[4] = tested on: S. aureus JE2 transposon mutant SAUSA300_0647 (vraF); test: MIC ratio WT/mutant
[5] = tested on: S. aureus JE2 transposon mutant SAUSA300_1962; test: MIC ratio WT/mutant
[6] = tested on: S. aureus JE2 transposon mutant SAUSA300_1465; test: MIC ratio WT/mutant
[7] = tested on: S. aureus JE2 transposon mutant SAUSA300_1867; test: MIC ratio WT/mutant
[8] = tested on: S. aureus JE2 transposon mutant SAUSA300_0646 (graS); test: MIC ratio WT/mutant
[9] = tested on: S. aureus JE2 transposon mutant SAUSA300_1503
[10] = tested on: S. aureus JE2 transposon mutant SAUSA300_1336
[11] = tested on: S. aureus JE2 transposon mutant SAUSA300_0829 (lipA); test: MIC ratio WT/mutant
[12] = tested on: S. aureus JE2 transposon mutant SAUSA300_1967
[13] = tested on: S. aureus JE2 transposon mutant SAUSA300_1898
[14] = tested on: S. aureus JE2 transposon mutant SAUSA300_0988 (trkA); test: MIC ratio WT/mutant
[15] = tested on: S. aureus JE2 transposon mutant SAUSA300_1036
[16] = tested on: S. aureus JE2 transposon mutant SAUSA300_0186 (argC)

Row | SMILES | Inhibition of S. aureus growth (S. aureus) | Membrane permeability of mutant relative to JE2 ([1]; mutant SAUSA300_0646) | Membrane permeability of mutant relative to JE2 ([1]; mutants SAUSA300_0186, 0829, 1089, 1097, 1220, 1228, 1515, 1865, 1867, 1962 and 1967) | Membrane permeability of mutant relative to JE2 ([1]; mutants SAUSA300_0645, 0647 and 1503) | Membrane permeability of mutant relative to JE2 ([1]; mutants SAUSA300_1036, 1037 and 1255) | Fold decrease of MIC (MIC ratio WT / mutant) [2] | Fold decrease of MIC (MIC ratio WT / mutant) [3] | Fold decrease of MIC (MIC ratio WT / mutant) [4] | Fold decrease of MIC (MIC ratio WT / mutant) [5] | Fold decrease of MIC (MIC ratio WT / mutant) [6] | Fold decrease of MIC (MIC ratio WT / mutant) [7] | Fold decrease of MIC (MIC ratio WT / mutant) [8] | Fold decrease of MIC (MIC ratio WT / mutant) [9] | Fold decrease of MIC (MIC ratio WT / mutant) [10] | Fold decrease of MIC (MIC ratio WT / mutant) [11] | Fold decrease of MIC (MIC ratio WT / mutant) [12] | Fold decrease of MIC (MIC ratio WT / mutant) [13] | Fold decrease of MIC (MIC ratio WT / mutant) [14] | Fold decrease of MIC (MIC ratio WT / mutant) [15] | Fold decrease of MIC (MIC ratio WT / mutant) [16]
1 | CC[C@H](C)[C@H](NC(=O)[C@H](CCCCN)NC(=O)[C@H](CCC(=O)O)NC(=O)[C@H](CCCCN)NC(=O)[C@H](CO)NC(=O)[C@H](CCCCN)NC(=O)[C@H](CCCNC(=N)N)NC(=O)[C@H](Cc1ccccc1)NC(=O)[C@H](Cc1ccccc1)NC(=O)[C@H](CC(=O)O)NC(=O)CNC(=O)[C@H](CC(C)C)NC(=O)[C@@H](N)CC(C)C)C(=O)NCC(=O)N[C@@H](CCCCN)C(=O)N[C@@H](CCC(=O)O)C(=O)N[C@@H](Cc1ccccc1)C(=O)N[C@@H](CCCCN)C(=O)N[C@@H](CCCNC(=N)N)C(=O)N[C@H](C(=O)N[C@H](C(=O)N[C@@H](CCC(N)=O)C(=O)N[C@@H](CCCNC(=N)N)C(=O)N[C@H](C(=O)N[C@@H](CCCCN)C(=O)N[C@@H](CC(=O)O)C(=O)N[C@@H](Cc1ccccc1)C(=O)N[C@@H](CC(C)C)C(=O)N[C@@H](CCCNC(=N)N)C(=O)N[C@@H](CC(N)=O)C(=O)N[C@@H](CC(C)C)C(=O)N[C@H](C(=O)N1CCC[C@H]1C(=O)N[C@@H](CCCNC(=N)N)C(=O)N[C@H](C(=O)N[C@@H](CCC(=O)O)C(=O)N[C@@H](CO)C(=O)O)[C@@H](C)O)C(C)C)[C@@H](C)CC)C(C)C)[C@@H](C)CC [LL-37] | did not inhibit | less permeable | essentially no differences | slightly more permeable | clearly more permeable than JE2 | – | – | – | – | – | – | – | – | – | – | – | – | – | – | –
2 | NC[C@H]1O[C@H](O[C@H]2[C@H](O)[C@@H](O[C@H]3O[C@H](CO)[C@@H](O)[C@H](N)[C@H]3O)[C@H](N)C[C@@H]2N)[C@H](N)C[C@@H]1O [Tobra, tobramycin] | – | – | – | – | – | 4 fold | 4 fold | 2 fold | 2 fold | 4 fold | – | – | – | – | – | – | – | – | – | –
3 | CN[C@H](CC(C)C)C(=O)N[C@H]1C(=O)N[C@@H](CC(N)=O)C(=O)N[C@H]2C(=O)N[C@H]3C(=O)N[C@H](C(=O)N[C@H](C(=O)O)c4cc(O)cc(O)c4-c4cc3ccc4O)[C@H](O)c3ccc(c(Cl)c3)Oc3cc2cc(c3O[C@@H]2O[C@H](CO)[C@@H](O)[C@H](O)[C@H]2O[C@H]2C[C@](C)(N)[C@H](O)[C@H](C)O2)Oc2ccc(cc2Cl)[C@H]1O [Van, vancomycin] | – | – | – | – | – | 2 fold | 4 fold | 2–4 fold | 2 fold | 4 fold | 2 fold | 2–4 fold | – | – | – | – | – | – | – | –
4 | CC(=O)NC[C@H]1CN(c2ccc(N3CCOCC3)c(F)c2)C(=O)O1 [Linez, linezolid] | – | – | – | – | – | – | 2 fold | 6 fold | 2–4 fold | 6 fold | – | – | 2 fold | – | – | – | – | – | – | –
5 | CN(C)c1cc(NC(=O)CNC(C)(C)C)c(O)c2c1C[C@H]1C[C@H]3[C@H](N(C)C)C(O)=C(C(N)=O)C(=O)[C@@]3(O)C(O)=C1C2=O [Tige, tigecycline] | – | – | – | – | – | 2 fold | 2–4 fold | 2 fold | 4 fold | 6 fold | 2 fold | 2 fold | 2 fold | 2 fold | 2 fold | 2 fold | 2 fold | 2 fold | 2 fold | 2 fold
